{"source": "patent US6358885B1", "about": "“Substituted phenylheterocyclic herbicides” (Mississippi State University, priority 1992, dated 2002)", "key": {"purple nutsedge": {"tested_on": "purple nutsedge", "assay": "Test B preemergence/postemergence greenhouse plant response rating 0 to 10", "assay_type": "in vivo, Cyperus rotundus", "conditions": "0 to 10 scale", "procedure,_shortened": "(§1)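 Planted seeds are treated preemergence with compound dissolved in a non-phytotoxic solvent, while postemergence applications go onto plants of two to eighteen cm. Plants stay in the greenhouse twelve to sixteen days and are then rated visually relative to controls.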"}, "corn [1]": {"tested_on": "corn", "assay": "Test B preemergence/postemergence greenhouse plant response rating 0 to 10", "assay_type": "in vivo, Zea mays", "conditions": "0 to 10 scale", "procedure,_shortened": "as §1"}, "crabgrass": {"tested_on": "crabgrass", "assay": "Test C preemergence/postemergence greenhouse plant response rating 0 to 100", "assay_type": "in vivo, Digitaria sanguinalis", "conditions": "POSTEMERGENCE", "procedure,_shortened": "(§2)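 Compounds in non-phytotoxic solvent went onto sandy loam before emergence (seeded one day earlier) or onto plants at the one-to-four leaf stage. Duck salad was treated via flood water (~2.5 cm, maintained) over silt loam.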"}, "rape": {"tested_on": "rape", "assay": "Test C preemergence/postemergence greenhouse plant response rating 0 to 100", "assay_type": "in vivo, Brassica napus", "conditions": "POSTEMERGENCE", "procedure,_shortened": "as §2"}, "sorghum": {"tested_on": "sorghum", "assay": "Test B preemergence/postemergence greenhouse plant response rating 0 to 10", "assay_type": "in vivo, Sorghum bicolor", "conditions": "0 to 10 scale", "procedure,_shortened": "as §1"}, "blackgrass": {"tested_on": "blackgrass", "assay": "Test B preemergence/postemergence greenhouse plant response rating 0 to 10", "assay_type": "in vivo, Alopecurus myosuroides", "conditions": "0 to 10 scale", "procedure,_shortened": "as §1"}, "sugar beet": {"tested_on": "sugar beet", "assay": "Test B preemergence/postemergence greenhouse plant response rating 0 to 10", "assay_type": "in vivo, Beta vulgaris", "conditions": "0 to 10 scale", "procedure,_shortened": "as §1"}, "chickweed": {"tested_on": "chickweed", "assay": "Test B preemergence/postemergence greenhouse plant response rating 0 to 10", "assay_type": "in vivo, Stellaria media", "conditions": "0 to 10 scale", "procedure,_shortened": "as §1"}, "morningglory": {"tested_on": "morningglory", "assay": "Test C preemergence/postemergence greenhouse plant response rating 0 to 100", "assay_type": "in vivo, Ipomoea hederacea", "conditions": "POSTEMERGENCE", "procedure,_shortened": "as §2"}, "velvetleaf": {"tested_on": "velvetleaf", "assay": "Test B preemergence/postemergence greenhouse plant response rating 0 to 10", "assay_type": "in vivo, Abutilon theophrasti", "conditions": "0 to 10 scale", "procedure,_shortened": "as §1"}, "wild oat": {"tested_on": "wild oat", "assay": "Test C preemergence/postemergence greenhouse plant response rating 0 to 100", "assay_type": "in vivo, Avena fatua", "conditions": "POSTEMERGENCE", "procedure,_shortened": "as §2"}, "barnyardgrass": {"tested_on": "barnyardgrass", "assay": "Test B preemergence/postemergence greenhouse plant response rating 0 to 10", "assay_type": "in vivo, Echinochloa crus-galli", "conditions": "0 to 10 scale", "procedure,_shortened": "as §1"}, "barley": {"tested_on": "barley", "assay": "Test B preemergence/postemergence greenhouse plant response rating 0 to 10", "assay_type": "in vivo, Hordeum vulgare", "conditions": "0 to 10 scale", "procedure,_shortened": "as §1"}, "wheat": {"tested_on": "wheat", "assay": "Test C preemergence/postemergence greenhouse plant response rating 0 to 100", "assay_type": "in vivo, Triticum aestivum", "conditions": "POSTEMERGENCE", "procedure,_shortened": "as §2"}, "rice": {"tested_on": "rice", "assay": "Test C flood test plant response rating 0 to 100", "assay_type": "in vivo, Oryza sativa", "procedure,_shortened": "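Compounds in non-phytotoxic solvent applied preemergence to sandy loam one day after planting, postemergence at the 1–4 leaf stage, or to ~2.5 cm floodwater over silt loam.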"}, "ryegrass": {"tested_on": "ryegrass", "assay": "Test C preemergence/postemergence greenhouse plant response rating 0 to 100", "assay_type": "in vivo, Lolium multiflorum", "conditions": "POSTEMERGENCE", "procedure,_shortened": "as §2"}, "bedstraw": {"tested_on": "bedstraw", "assay": "Test C preemergence/postemergence greenhouse plant response rating 0 to 100", "assay_type": "in vivo, Galium aparine", "conditions": "POSTEMERGENCE", "procedure,_shortened": "as §2"}, "corn [2]": {"tested_on": "corn", "assay": "Test C preemergence/postemergence greenhouse plant response rating 0 to 100", "assay_type": "in vivo, Zea mays", "conditions": "POSTEMERGENCE", "procedure,_shortened": "as §2"}}}
{"smiles": "COCN1C(=O)COc2cc(F)c(-c3nn4c(c3Br)CCCC4)cc21", "note": "[Compound 67]", "values": [{"measurement": "Plant response rating, Nutsedge", "setting": "purple nutsedge; POSTEMERGENCE, Rate 10 g/ha", "value": 1}, {"measurement": "Plant response rating, Nutsedge", "setting": "purple nutsedge; POSTEMERGENCE, Rate 50 g/ha", "value": 3}, {"measurement": "Plant response rating, Nutsedge", "setting": "purple nutsedge; PREEMERGENCE, Rate 50 g/ha", "value": 0}, {"measurement": "Plant response rating, Corn", "setting": "corn [1]; POSTEMERGENCE, Rate 10 g/ha", "value": 3}, {"measurement": "Plant response rating, Corn", "setting": "corn [1]; POSTEMERGENCE, Rate 50 g/ha", "value": 4}, {"measurement": "Plant response rating, Corn", "setting": "corn [1]; PREEMERGENCE, Rate 50 g/ha", "value": 2}, {"measurement": "Plant response rating, Crabgrass", "setting": "crabgrass; 62 g/ha, 0 to 100 scale", "value": 40}, {"measurement": "Plant response rating (0 to 100), Crabgrass", "setting": "crabgrass; Rate 1 g/ha", "value": 10}, {"measurement": "Plant response rating (0 to 100), Crabgrass", "setting": "crabgrass; Rate 4 g/ha", "value": 20}, {"measurement": "Plant response rating (0 to 100), Crabgrass", "setting": "crabgrass; Rate 16 g/ha", "value": 30}, {"measurement": "Plant response rating, Rape", "setting": "rape; 62 g/ha, 0 to 100 scale", "value": 100}, {"measurement": "Plant response rating (0 to 100), Rape", "setting": "rape; Rate 1 g/ha", "value": 70}, {"measurement": "Plant response rating (0 to 100), Rape", "setting": "rape; Rate 4 g/ha", "value": 70}, {"measurement": "Plant response rating (0 to 100), Rape", "setting": "rape; Rate 16 g/ha", "value": 90}, {"measurement": "Plant response rating, Sorghum", "setting": "sorghum; POSTEMERGENCE, Rate 10 g/ha", "value": 5}, {"measurement": "Plant response rating, Sorghum", "setting": "sorghum; POSTEMERGENCE, Rate 50 g/ha", "value": 6}, {"measurement": "Plant response rating, Sorghum", "setting": "sorghum; PREEMERGENCE, Rate 50 g/ha", "value": 2}, {"measurement": "Plant response rating, Blackgrass", "setting": "blackgrass; POSTEMERGENCE, Rate 10 g/ha", "value": 4}, {"measurement": "Plant response rating, Blackgrass", "setting": "blackgrass; POSTEMERGENCE, Rate 50 g/ha", "value": 5}, {"measurement": "Plant response rating, Blackgrass", "setting": "blackgrass; PREEMERGENCE, Rate 10 g/ha", "value": 3}, {"measurement": "Plant response rating, Blackgrass", "setting": "blackgrass; PREEMERGENCE, Rate 50 g/ha", "value": 8}, {"measurement": "Plant response rating, Sugar beet", "setting": "sugar beet; POSTEMERGENCE, Rate 10 g/ha", "value": 10}, {"measurement": "Plant response rating, Sugar beet", "setting": "sugar beet; POSTEMERGENCE, Rate 50 g/ha", "value": 10}, {"measurement": "Plant response rating, Sugar beet", "setting": "sugar beet; PREEMERGENCE, Rate 50 g/ha", "value": 9}, {"measurement": "Plant response rating, Chickweed", "setting": "chickweed; POSTEMERGENCE, Rate 10 g/ha", "value": 7}, {"measurement": "Plant response rating, Chickweed", "setting": "chickweed; POSTEMERGENCE, Rate 50 g/ha", "value": 9}, {"measurement": "Plant response rating, Chickweed", "setting": "chickweed; PREEMERGENCE, Rate 10 g/ha", "value": 0}, {"measurement": "Plant response rating, Chickweed", "setting": "chickweed; PREEMERGENCE, Rate 50 g/ha", "value": 6}, {"measurement": "Plant response rating, Morningglory", "setting": "morningglory; 62 g/ha, 0 to 100 scale", "value": 100}, {"measurement": "Plant response rating (0 to 100), Morningglory", "setting": "morningglory; Rate 1 g/ha", "value": 50}, {"measurement": "Plant response rating (0 to 100), Morningglory", "setting": "morningglory; Rate 4 g/ha", "value": 70}, {"measurement": "Plant response rating (0 to 100), Morningglory", "setting": "morningglory; Rate 16 g/ha", "value": 100}, {"measurement": "Plant response rating, Velvetleaf", "setting": "velvetleaf; POSTEMERGENCE, Rate 10 g/ha", "value": 9}, {"measurement": "Plant response rating, Velvetleaf", "setting": "velvetleaf; POSTEMERGENCE, Rate 50 g/ha", "value": 10}, {"measurement": "Plant response rating, Velvetleaf", "setting": "velvetleaf; PREEMERGENCE, Rate 50 g/ha", "value": 1}, {"measurement": "Plant response rating, Wild oat", "setting": "wild oat; 62 g/ha, 0 to 100 scale", "value": 60}, {"measurement": "Plant response rating (0 to 100), Wild oat", "setting": "wild oat; Rate 1 g/ha", "value": 10}, {"measurement": "Plant response rating (0 to 100), Wild oat", "setting": "wild oat; Rate 4 g/ha", "value": 30}, {"measurement": "Plant response rating (0 to 100), Wild oat", "setting": "wild oat; Rate 16 g/ha", "value": 50}, {"measurement": "Plant response rating, Barnyardgrass", "setting": "barnyardgrass; POSTEMERGENCE, Rate 10 g/ha", "value": 5}, {"measurement": "Plant response rating, Barnyardgrass", "setting": "barnyardgrass; POSTEMERGENCE, Rate 50 g/ha", "value": 6}, {"measurement": "Plant response rating, Barnyardgrass", "setting": "barnyardgrass; PREEMERGENCE, Rate 10 g/ha", "value": 2}, {"measurement": "Plant response rating, Barnyardgrass", "setting": "barnyardgrass; PREEMERGENCE, Rate 50 g/ha", "value": 6}, {"measurement": "Plant response rating, Barley", "setting": "barley; POSTEMERGENCE, Rate 10 g/ha", "value": 4}, {"measurement": "Plant response rating, Barley", "setting": "barley; POSTEMERGENCE, Rate 50 g/ha", "value": 6}, {"measurement": "Plant response rating, Barley", "setting": "barley; PREEMERGENCE, Rate 10 g/ha", "value": 0}, {"measurement": "Plant response rating, Barley", "setting": "barley; PREEMERGENCE, Rate 50 g/ha", "value": 2}, {"measurement": "Plant response rating, Wheat", "setting": "wheat; 62 g/ha, 0 to 100 scale", "value": 60}, {"measurement": "Plant response rating (0 to 100), Wheat", "setting": "wheat; Rate 1 g/ha", "value": 10}, {"measurement": "Plant response rating (0 to 100), Wheat", "setting": "wheat; Rate 4 g/ha", "value": 30}, {"measurement": "Plant response rating (0 to 100), Wheat", "setting": "wheat; Rate 16 g/ha", "value": 50}, {"measurement": "Plant response rating (0 to 100), Rice Japonica", "setting": "rice; POSTEMERGENCE section, flood test, Rate 1 g/ha", "value": 0}, {"measurement": "Plant response rating (0 to 100), Rice Japonica", "setting": "rice; POSTEMERGENCE section, flood test, Rate 4 g/ha", "value": 0}, {"measurement": "Plant response rating (0 to 100), Rice Japonica", "setting": "rice; Rate 16 g/ha, under POSTEMERGENCE head (flood test species)", "value": 50}, {"measurement": "Plant response rating Rice Japonica", "setting": "rice; flood test species listed under POSTEMERGENCE, 62 g/ha, 0 to 100 scale", "value": 90}, {"measurement": "Plant response rating Ryegrass", "setting": "ryegrass; 62 g/ha, 0 to 100 scale", "value": 60}, {"measurement": "Plant response rating (0 to 100), Ryegrass", "setting": "ryegrass; Rate 1 g/ha", "value": 20}, {"measurement": "Plant response rating (0 to 100), Ryegrass", "setting": "ryegrass; Rate 4 g/ha", "value": 40}, {"measurement": "Plant response rating (0 to 100), Ryegrass", "setting": "ryegrass; Rate 16 g/ha", "value": 50}, {"measurement": "Plant response rating, Bedstraw", "setting": "bedstraw; 62 g/ha, 0 to 100 scale", "value": 80}, {"measurement": "Plant response rating (0 to 100), Bedstraw", "setting": "bedstraw; Rate 1 g/ha", "value": 40}, {"measurement": "Plant response rating (0 to 100), Bedstraw", "setting": "bedstraw; Rate 4 g/ha", "value": 70}, {"measurement": "Plant response rating (0 to 100), Bedstraw", "setting": "bedstraw; Rate 16 g/ha", "value": 80}, {"measurement": "Plant response rating, Corn", "setting": "corn [2]; 62 g/ha, 0 to 100 scale", "value": 40}, {"measurement": "Plant response rating (0 to 100), Corn", "setting": "corn [2]; Rate 1 g/ha", "value": 10}, {"measurement": "Plant response rating (0 to 100), Corn", "setting": "corn [2]; Rate 4 g/ha", "value": 20}, {"measurement": "Plant response rating (0 to 100), Corn", "setting": "corn [2]; Rate 16 g/ha", "value": 30}]}
